According to the NIST ThermoML archive (doi:10.1016/j.fluid.2015.06.015):
± gives the expanded uncertainty stated by the source.

Experiments:
[1] = DTA; for Normal melting temperature: Crystal 1
[2] = Molar enthalpy of transition or fusion; details: Crystal 1; DSC

Structure (SMILES) | Normal melting temperature [1] | Triple point temperature ([1]; Crystal 2) | Molar enthalpy of transition or fusion [2] | Triple point temperature ([1]; Crystal 3)
CCCCCCCC/C=C\CCCCCCCC(=O)OCC(COC(=O)CCCCCCC/C=C\CCCCCCCC)OC(=O)CCCCCCC/C=C\CCCCCCCC [1,2,3-tri(cis-9-octadecenoyl)glycerol] | 5.42 ± 0.39 °C | 258.99 ± 0.66 K | 27.4 ± 0.598 kcal/mol | –
CCCCCCCCCC(=O)O [decanoic acid] | 32.33 ± 0.41 °C | – | 6.51 ± 0.217 kcal/mol | –
CCCCCCCCCCCC(=O)O [dodecanoic acid] | 45.33 ± 1 °C | 317.91 ± 0.46 K | 8.27 ± 0.502 kcal/mol | –
CCCCCCCCCCCCCC(=O)O [tetradecanoic acid] | 55.78 ± 0.5 °C | 327.95 ± 0.7 K | 10.5 ± 0.222 kcal/mol | –

Now from value to molecule:

Normal melting temperature [1] | Triple point temperature ([1]; Crystal 2) | Molar enthalpy of transition or fusion [2] | Triple point temperature ([1]; Crystal 3) | Structure (SMILES)
38.0 ± 0.53 °C | 310.06 ± 0.78 K | 10.9 ± 0.454 kcal/mol | – | CCCCCCCCCCCCCCO [1-tetradecanol]
6.96 ± 0.56 °C | 275.94 ± 0.68 K | 7.09 ± 0.43 kcal/mol | – | CCCCCCCCCCO [decan-1-ol]
24.38 ± 0.39 °C | 296.95 ± 0.39 K | 9.19 ± 0.335 kcal/mol | 291.04 ± 0.7 K | CCCCCCCCCCCCO [dodecan-1-ol]
